Results taken from patent publication US20050176733A1, “Chk-1 inhibitors” (Millennium Pharmaceuticals, Inc., priority 2004, published 2005).

Biological target: T1, Recombinant human Chk-1 (GST-Chk-1) (Homo sapiens, UniProt O14757)
T1 construct: made in house; host or cells: insect cells (baculovirus, Bac-to-Bac expression system)
T1 sequence (O14757 1-476): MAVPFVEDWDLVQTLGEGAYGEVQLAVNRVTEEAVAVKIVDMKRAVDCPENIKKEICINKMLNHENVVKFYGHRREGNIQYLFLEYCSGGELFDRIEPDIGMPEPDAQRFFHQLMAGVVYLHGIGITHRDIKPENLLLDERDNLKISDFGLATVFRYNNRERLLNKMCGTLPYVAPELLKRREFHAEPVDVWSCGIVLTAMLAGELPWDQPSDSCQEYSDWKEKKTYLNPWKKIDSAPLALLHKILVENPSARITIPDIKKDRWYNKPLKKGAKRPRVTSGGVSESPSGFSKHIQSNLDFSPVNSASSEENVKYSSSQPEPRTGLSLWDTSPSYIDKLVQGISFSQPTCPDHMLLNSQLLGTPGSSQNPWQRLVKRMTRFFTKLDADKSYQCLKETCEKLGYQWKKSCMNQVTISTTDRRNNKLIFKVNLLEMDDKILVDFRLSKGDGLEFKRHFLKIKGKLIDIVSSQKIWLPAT
Assay: Chk-1 FlashPlate Kinase Assay
Assay type: biochemical
Details: for inhibition at 10 µM: at a concentration of 10 μM, read-out: inhibition of Chk-1 (Chk-1 induced 33P incorporation); for inhibition at 1 µM: at a concentration of 1.0 μM
Protocol: Recombinant human Chk-1 was expressed as a fusion protein with glutathione S-transferase at the amino-terminus (GST-Chk-1) using standard baculovirus vectors and (Bac-to-Bac®) insect cell expression system purchased from GIBCO™ Invitrogen.
Recombinant protein expressed in insect cells was purified using glutathione sepharose (Amersham Biotech) using standard procedures described by the manufacturer.
Assays (25 μL) contained 8.7 nM GST-Chk-1, 10 mM MES, 0.1 mM ethylene glycol-bis(β-aminoethylether)-N,N,N′,N′-tetraacetic acid (EGTA, pH 8.0), 2 mM DTT, 0.05% Tween 20, 3 μM peptide substrate (Biotin-ILSRRPSYRKILND-free acid) (SEQ ID NO: 1), 1 μM ATP, 0.4 μCi ^33P-γ-ATP (NEN), 4% DMSO. Reactions were incubated for 30 minutes at room temperature, terminated with 50 μL of 50 mM EDTA and […] were transferred to streptavidin-coated FlashPlates® (NEN) and incubated for 1 hour at room temperature. Plates were washed with phosphate buffered saline containing 0.01% Tween-20 and 10 mM sodium pyrophosphate. Plates were dried, sealed with Topseal™ (NEN) and amount of ^33P incorporated into the peptide substrate measure using a Packard Topcount® NXT™ scintillation counter with standard settings.

SMILES	inhibition at 10 µM [%]	inhibition at 1 µM [%]
Cc1cnc(NC(=O)Nc2cc(Cl)ccc2OCCCNC(=O)CN2CCN(C)CC2)cn1 [Compound I-7, N-(3-{4-Chloro-2-[3-(5-methyl-pyrazin-2-yl)-ureido]-phenoxy}-propyl)-2-(4-methyl-piperazin-1-yl)-acetamide]	≥ 50	≥ 50
Cc1cnc(NC(=O)Nc2ccc(N3CCCC3)cc2OCCCNC(=O)CN(C)C)cn1 [Compound I-11, 2-Dimethylamino-N-(3-{2-[3-(5-methyl-pyrazin-2-yl)-ureido]-5-pyrrolidin-1-yl-phenoxy}-propyl)-acetamide]	≥ 50	≥ 50
Cc1cnc(NC(=O)Nc2cc(Cl)ccc2OCCCNC(=O)CN2CCOCC2)cn1 [Compound I-6, N-(3-{4-Chloro-2-[3-(5-methyl-pyrazin-2-yl)-ureido]-phenoxy}-propyl)-2-morpholin-4-yl-acetamide]	≥ 50	≥ 50
Cc1cnc(NC(=O)Nc2cc(Cl)ccc2OCCCNC(=O)CN(C)C)cn1 [Compound I-4, N-(3-{4-Chloro-2-[3-(5-methyl-pyrazin-2-yl)-ureido]-phenoxy}-propyl)-2-dimethylamino-acetamide]	≥ 50	≥ 50
Cc1cnc(NC(=O)Nc2ccc(N3CCCC3)cc2OCCCNC(=O)c2ccc(Cl)cc2)cn1 [Compound I-10, 4-Chloro-N-(3-{2-[3-(5-methyl-pyrazin-2-yl)-ureido]-5-pyrrolidin-1-yl-phenoxy}-propyl)-benzamide]	≥ 50	
N#Cc1ccc(NC(=O)Nc2cc(Cl)ccc2OCCCNC(=O)N2CCOCC2)nc1 [Compound I-12, Morpholine-4-carboxylic acid (3-{4-chloro-2-[3-(5-cyano-pyridin-2-yl)-ureido]-phenoxy}-propyl)-amide]	≥ 50	≥ 50
Cc1cnc(NC(=O)Nc2cc(Cl)ccc2OCCCNC(=O)N2CCOCC2)cn1 [Compound I-5, Morpholine-4-carboxylic acid (3-{4-chloro-2-[3-(5-methyl-pyrazin-2-yl)-ureido]-phenoxy}-propyl)-amide]	≥ 50	≥ 50
Cc1cnc(NC(=O)Nc2cc(C(=O)NCCN(C)C)ccc2OCCCNC(=O)c2ccc(Cl)cc2)cn1 [Compound I-9, 4-[3-(4-Chloro-benzoylamino)-propoxy]-N-(2-dimethylamino-ethyl)-3-[3-(5-methyl-pyrazin-2-yl)-ureido]-benzamide]	≥ 50	≥ 50
CN1CCN(C(=O)CCCOc2ccc(Cl)cc2NC(=O)Nc2ccc(C#N)cn2)CC1 [Compound I-14, 1-{5-Chloro-2-[4-(4-methyl-piperazin-1-yl)-4-oxo-butoxy]-phenyl}-3-(5-cyano-pyridin-2-yl)-urea]	≥ 50	≥ 50
Cc1cnc(NC(=O)Nc2cc(Cl)ccc2OCC(=O)N2CCOCC2)cn1 [Compound I-8, 1-[5-Chloro-2-(2-morpholin-4-yl-2-oxo-ethoxy)-phenyl]-3-(5-methyl-pyrazin-2-yl)-urea]	≥ 50	≥ 50
N#Cc1ccc(NC(=O)Nc2cc(Cl)ccc2OCCCC(=O)N2CCOCC2)nc1 [Compound I-110, 1-[5-Chloro-2-(4-morpholin-4-yl-4-oxo-butoxy)-phenyl]-3-(5-cyano-pyridin-2-yl)-urea]	≥ 50	
NC(=O)c1ccc(NC(=O)Nc2cc(Cl)ccc2OCCCNC(=O)[C@@H](N)Cc2ccc(Cl)cc2)nc1 [Compound I-2, 6-[3-(2-{3-[2-Amino-3-(4-chloro-phenyl)-propionylamino]-propoxy}-5-chloro-phenyl)-ureido]-nicotinamide]	≥ 50	≥ 50

The remaining lines, values ahead:

inhibition at 10 µM [%]	inhibition at 1 µM [%]	SMILES
≥ 50		Cc1cnc(NC(=O)Nc2cc(C(=O)N3CCN(C)CC3)ccc2OCCCNC(=O)c2ccc(Cl)cc2)cn1 [Compound I-20, 4-Chloro-N-(3-{4-(4-methyl-piperazine-1-carbonyl)-2-[3-(5-methyl-pyrazin-2-yl)-ureido]-phenoxy}-propyl)-benzamide]
≥ 50	≥ 50	CN(C)CC(=O)NCCCOc1ccc(Cl)cc1NC(=O)Nc1ccc(C#N)cn1 [Compound I-39, N-(3-{4-Chloro-2-[3-(5-cyano-pyridin-2-yl)-ureido]-phenoxy}-propyl)-2-dimethylamino-acetamide]
≥ 50	≥ 50	Cc1cnc(NC(=O)Nc2cc(Cl)ccc2OCCCNC(=O)c2ccc(N(C)C)cc2)cn1 [Compound I-15, N-(3-{4-Chloro-2-[3-(5-methyl-pyrazin-2-yl)-ureido]-phenoxy}-propyl)-4-dimethylamino-benzaminde]
≥ 50	≥ 50	Cc1cnc(NC(=O)Nc2ccc(N3CCN(C)CC3)cc2OCCCNC(=O)c2ccc(Cl)cc2)cn1 [Compound I-13, 4-Chloro-N-(3-{5-(4-methyl-piperazin-1-yl)-2-[3-(5-methyl-pyrazin-2-yl)-ureido]-phenoxy}-propyl)-benzamide]
≥ 50	≥ 50	Cc1cnc(NC(=O)Nc2cc(Cl)ccc2OCCCNC(=O)[C@@H](N)Cc2ccc(Cl)cc2)cn1 [Compound I-16, 2-Amino-N-(3-{4-chloro-2-[3-(5-methyl-pyrazin-2-yl)-ureido]-phenoxy}-propyl)-3-(4-chloro-phenyl)-propionamide]
≥ 50	≥ 50	Cc1cnc(NC(=O)Nc2cc(Cl)ccc2OCCCNC(=O)C(N)c2ccc(Cl)cc2)cn1 (centres unmarked) [Compound I-111, 2-Amino-N-(3-{4-chloro-2-[3-(5-methyl-pyrazin-2-yl)-ureido]-phenoxy}-propyl)-2-(4-chloro-phenyl)-acetamide]
≥ 50	≥ 50	CN1CCN(C(=O)NCCCOc2ccc(Cl)cc2NC(=O)Nc2ccc(C#N)cn2)CC1 [Compound I-18, 4-Methyl-piperazine-1-carboxylic acid (3-{4-chloro-2-[3-(5-cyano-pyridin-2-yl)-ureido]-phenoxy}-propyl)-amide]
